According to patent US20040086896A1, “Polynucleotides and polypeptides associated with the NF-kB pathway” (priority 2001, published 2004):

B1: IL-1α: IL-1α (Peprotech) cytokine stimulus (protein, UniProt P01583 113-271, looked up)
Interleukin-1 alpha: SAPFSFLSNVKYNFMRIIKYEFILNDALNQSIIRANDQYLTAAALHNLDEAVKFDMGAYKSSKDDAKITVILRISKTQLYVTAQDEDQPVLLKEMPEIPKTITGSETNLLFFWETHGTKNYFTSVAHPNLFIATKQDYWVCLAGGPPSITDFQILENQA

Columns and labels:
NF-κB pathway = assay: AD037 mRNA by quantitative PCR in THP-1 monocytes, LPS with dexamethasone or IKK-2 inhibitor (FIG. 80); type: cell-based, human; conditions: LPS, 2, 4 and 8 hours post stimulation
Description: The figure illustrates the basal AD037 expression in THP-1 monocytes in response to LPS (“LPS”), LPS and the glucocorticoid dexamethasone (“LP/Dex”), or LPS and the IKK-2 inhibitor BMS-345541 (“LPS/345541”), for 2 hours, 4 hours, and 8 afters post stimulation. Unstimulated THP-1 moncytes served as a control. […] Expression data was obtained by measuring the steady state AD037 mRNA levels by quantitative PCR using the PCR primer pair provided as SEQ ID NO:162 and 163 as described herein.
Moreover, in an effort to further confirm the NF-κB-dependent expression of AD037, two approaches were investigated. In the first approach, additional inhibitors of the NF-κB pathway were used to assess their affect on AD037 expression. Although it has other transcriptional effects, dexamethasone inhibits NF-κB activity via glucocorticoid receptor-mediated transrepression (Reichardt et al. (2001) EMBO J. 20:7168-7173). The compound 4(2′-aminoethyl)amino-1,8-dimethylimidazo(1,2-a) quinoxaline, is a selective IKK-2 inhibitor (International Publication No. WO 02/60386, Published Oct. 10, 2002; Burke et al. (2003) J. Biol. Chem. 278:1450-1456).

AD037 mRNA [1] = assay: AD037 mRNA by RT-PCR in stimulated synovial fibroblasts; type: cell-based; conditions: synovial fibroblasts, 1, 6, or 24 hours; TNFα, IL-1α, IL-17 10 ng/ml, IL-17B-Ig fusion protein 5 ng/ml; FIG. 20
Description: (§1) Nonetheless, the following methods were used to assess the expression profile of the NFkB assocaited polypeptides of the present invention. Briefly, poly (A)^+ mRNA was isolated from THP-1 cells that were either unstimulated, or stimulated with 100 ng/ml LPS for two hours in the presence and absence of BMS-205820 (2 uM) using the Fast Track isolation kit (Invitrogen, Carlsbad, Calif.) according to the manufacturer's instructions. RNA quality and quantity were evaluated using UV spectrometry and capillary electrophoresis with the RNA 6000 Assay (Agilent). Five-hundred nanograms of polyA RNA was used for first-strand cDNA synthesis using the SuperScriptTm First-Strand Synthesis System for RT-PCR (Invitrogen) according to the manufacturer's instructions with 250 ng of random hexamers.
PCR reactions were performed in a total volume of 40 ul containing master mix (SYBR Green I dye, 50 mM Tris-Cl pH 8.3, 75 mM KCl, DMSO, Rox reference dye, 5 mM MgCl2, 2 mM dNTP, I unit Platinum Taq High Fidelity enzyme), 0.5 uM each of forward and reverse gene-specific primers, and cDNA (8 ul of a 1:36 dilution of the first strand reaction mix). For tissue expression analyses, PCR reactions included 2 ul of cDNA derived from the Human Multiple Tissue cDNA panel I and Human Immune System MTC Panel (Clontech, Palo Alto, Calif.). The amplification program consisted of a 10 minute incubation at 95° C., followed by 40 cycles of incubations at 95° C. for 15 seconds, 60° C. for 1 minute. The amplification was followed by melting curve analysis at 60° C. to determine the specificity of the amplification reaction. A negative control without cDNA template was run to assess the overall specificity. The data were analyzed using the TaqMan 5700 software with the threshold value set to 0.5. The message levels of GAPDH were used to normalize the amounts of cDNA for each reaction.
Synovial fibroblasts were obtained from Cell Applications, INC. […] The levels of each NFkB associated polypeptide mRNA may be measured by RT-PCR analysis using the primers described herein for each gene. […]

AD037 mRNA [2] = assay: AD037 mRNA by RT-PCR in stimulated THP-1 human monocyte line; type: cell-based; conditions: THP-1 cells stimulated for 8, 24, or 48 hours; 100 ng/ml LPS, 10 ng/ml TNFα or 100 units/ml IFN-γ; FIG. 18
Description: as §1, with “Five-hundred nanograms of polyA RNA was used for first-strand cDNA synthesis using the SuperScriptTm First-Strand Synthesis System for RT-PCR (Invitrogen) according to the manufacturer's instructions with 250 ng of random hexamers.” left out
PCR reactions were performed in a total volume of 40 ul containing master mix (SYBR Green I dye, 50 mM Tris-Cl pH 8.3, 75 mM KCl, DMSO, Rox reference dye, 5 mM MgCl2, 2 mM dNTP, I unit Platinum Taq High Fidelity enzyme), 0.5 uM each of forward and reverse gene-specific primers, and cDNA (8 ul of a 1:36 dilution of the first strand reaction mix). […] The data were analyzed using the TaqMan 5700 software with the threshold value set to 0.5. […]
The THP-1 human monocyte line was stimulated with 100 ng/ml LPS, 10 ng/ml TNFα (Peprotech, Rocky Hill, N.J.), or 100 units/ml interferon-γ (IFN-γ, Peprotech) for either 8, 24, or 48 hours. […] The levels of each NFkB associated polypeptide mRNA may be measured by RT-PCR analysis using the primers described herein for each gene. […]

| Molecule | LPS-induced AD037 expression (mRNA) (NF-κB pathway) | LPS-induced AD037 expression (mRNA) (NF-κB pathway; listed as 4(2′-aminoethyl)amino-1,8-dimethylimidazo(1,2-a) quinoxaline) | AD037 mRNA level (RT-PCR, normalized to GAPDH) (AD037 mRNA [1]) | AD037 mRNA level (RT-PCR, normalized to GAPDH) (AD037 mRNA [2]) |
| --- | --- | --- | --- | --- |
| Cc1ccc2nc(NCCN)c3ncc(C)n3c2c1 [BMS-345541, 4(2′-aminoethyl)amino-1,8-dimethylimidazo(1,2-a) quinoxaline] | reduced to control levels | significantly inhibited | – | – |
| IL-17: IL-17 (R&D Systems) cytokine stimulus | – | – | No upregulation | – |
| IFN-γ: interferon-γ (Peprotech), fails to activate the NF-KB pathway | – | – | – | Little upregulation |
| TNFα | – | – | No upregulation | upregulated |
| B1 | – | – | No upregulation | – |
